Experimental findings from ChEMBL document CHEMBL5357055, “Protoilludane-Type and Related Nor-Sesquiterpenes from Phellinus hartigii and Their Anti-Hypertrophic Activities in Rat Cardiomyocytes” (J Nat Prod, 2024) are described below.

As usually defined, the CC50 is the concentration giving 50% cytotoxicity.

Active and inactive are the calls of the source. The rule behind the calls is not given here. Where only a bound is given, the exact number is not on record here.

Data set [1] relates to NRCM. The experiment in a line: Anticardiac hypertrophic activity in phenylephrine-induced hypertrophy in Sprague-Dawley rat NRCM cells assessed as reduction in inhibition of MYH7 level at 50 uM preincubated for 12 hrs followed by phenylephrine stimulation and measured after 48 hrs by Westernblot analysis. The conditions noted are these: time 60.0 hrs. The class given is functional, cell-based.

The test system of data set [2] is NRCM. The experiment in a line: Anticardiac hypertrophic activity in phenylephrine-induced hypertrophy in Sprague-Dawley rat NRCM cells assessed as reduction in NPPB mRNA expression level at 50 uM preincubated for 12 hrs followed by phenylephrine stimulation and measured after 48 hrs by qRT-PCR analysis. The class given is functional, cell-based. The conditions noted are these: time 60.0 hrs. (Quantitative PCR measures a nucleic acid by following its amplification.)

The test system of data set [3] is NRCM. The experiment in a line: Anticardiac hypertrophic activity in phenylephrine-induced hypertrophy in Sprague-Dawley rat NRCM cells assessed as reduction in NPPA mRNA expression level at 50 uM preincubated for 12 hrs followed by phenylephrine stimulation and measured after 48 hrs by qRT-PCR analysis. The conditions noted are these: time 60.0 hrs. Type of data set: functional, cell-based.

In data set [4] the test system is NRCM. In words: Anticardiac hypertrophic activity in phenylephrine-induced hypertrophy in Sprague-Dawley rat NRCM cells assessed as attenuation of cardiomyocyte hypertrophy preincubated for 12 hrs followed by phenylephrine stimulation and measured after 48 hrs by 488-I Phalloidin/DAPI staining based fluorescence microscopic analysis. Type of data set: functional, cell-based. The settings on record: time 60.0 hrs.

A short description of data set [5]: Cytotoxicity against NRCM cells assessed as reduction in cell viability measured after 48 hrs by CCK-8 method. Type of data set: toxicity, cell-based. The settings on record: rat. (In general: Tetrazolium assays rely on reduction of a dye to a coloured formazan, in cell work by metabolically active cells.)
Data set [6] deals with NRCM. The experiment in a line: Anticardiac hypertrophic activity in phenylephrine-induced hypertrophy in Sprague-Dawley rat NRCM cells assessed as reduction in inhibition of ANP level at 50 uM preincubated for 12 hrs followed by phenylephrine stimulation and measured after 48 hrs by Westernblot analysis. The settings on record: time 60.0 hrs. Type of data set: functional, cell-based.

With `COC(=O)[C@@H]1C[C@@H]2C[C@@H](C)[C@@H]3OC(=O)C[C@]3(C)[C@H]2C1`, the outcome in the data set with NRCM [1], with NRCM [2], in the data set with NRCM [3], with NRCM [4] and in the data set on NRCM [6] was Active. Further, in data set [5], the CC50 at 48 h was more than 50 µM.
For the compound `C[C@@]12CC[C@@](C)(C1=O)[C@H]1C[C@H](C(=O)O)C[C@H]1C2`, the outcome in the data set on NRCM [1], in the data set on NRCM [2], in the data set with NRCM [3], in the data set with NRCM [4] and in the data set with NRCM [6] was Active. Also, the CC50 at 48 h in data set [5] was more than 50 µM.
Turning to `COC(=O)[C@@H]1C[C@@H]2C[C@@H](C)[C@@H]3C(=O)C[C@]3(C)[C@H]2C1`, the outcome in the data set on NRCM [1], with NRCM [2], in the data set with NRCM [3], in the data set with NRCM [4] and in the data set with NRCM [6] was Active. The 50% cytotoxic concentration (CC50) at 48 h in data set [5] was more than 50 µM.
